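Growth conditions: 96-well plates. Treatment: test compound, 48 hours, 5 concentrations. Analysis: linear interpolation between bracketing concentrations; unreached endpoints set to highest concentration. TGI: concentration producing complete growth inhibition.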
Columns and labels:
Assay in all cases: NCI tumour cell line growth inhibition, 48 h
[1] = tested on: RXF-631 renal
[2] = tested on: KM20L2 colon
[3] = tested on: LXFL 529 NSCLC
[4] = tested on: HOP-18 NSCLC
[5] = tested on: XF 498 CNS
[6] = tested on: M19-MEL melanoma
[7] = tested on: DMS 114 small cell lung
[8] = tested on: DMS 273 small cell lung
[9] = tested on: SNB-78 CNS
[10] = tested on: SN12K1 renal
[11] = tested on: P388 leukemia
[12] = tested on: P388/ADR leukemia

SMILES	TGI [1]	TGI [2]	TGI [3]	TGI [4]	TGI [5]	TGI [6]	TGI [7]	TGI [8]	TGI [9]	TGI [10]	TGI [11]	TGI [12]
CC(CN(C)C)C(=O)c1ccccc1 (stereo not given)	> 100 µM	> 87.5 µM	39.8 µM	> 100 µM	45 µM	35.4 µM	> 57.8 µM	> 100 µM	> 64 µM	–	–	–
COc1cc(C2c3cc4c(cc3[C@@H](Oc3ccc(F)cc3)C3COC(=O)[C@H]23)OCO4)cc(OC)c1O (stereo not given in full)	–	> 100 µM	–	> 100 µM	–	40.4 µM	–	47.2 µM	–	> 100 µM	> 21.2 µM	–
COc1ccc(C2C3CCCC(C3=O)C(c3ccc(OC)cc3)N2N=O)cc1 (stereo not given)	–	> 100 µM	–	31 µM	72.4 µM	99.2 µM	47.9 µM	43.6 µM	> 100 µM	> 79.6 µM	42.9 µM	38.3 µM

— PubChem BioAssay (NCI)
